Results from ChEMBL document CHEMBL5230155, “Recent contributions of quinolines to antimalarial and anticancer drug discovery research” (Eur J Med Chem, 2021).
Values after ≈ are worked out from the molar mass of the structure shown. Each block holds one compound with its values, some of them ahead of it.

Experiments:
[1] = Binding affinity to human nRNP
Plasmodium falciparum [2] = test: Antimalarial activity against CQ-resistant Plasmodium falciparum W2; type: functional, organism-based
Plasmodium falciparum [3] = test: Antimalarial activity against CQ-sensitive Plasmodium falciparum D6; type: functional, organism-based
Plasmodium falciparum [4] = test: microbe, parasite or virus in culture
Description: Antimalarial activity against Plasmodium falciparum

HCT-116 = test: Cytotoxicity against human HCT-116 cells; type: functional, cell-based
HepG2 = test: Cytotoxicity against human HepG2 cells; type: functional, cell-based; settings: Homo sapiens, HepG2
[5] = molecular target: Hepatocyte growth factor receptor (Homo sapiens, UniProt P08581); test: Inhibition of c-Met (unknown origin)
Sequence of Hepatocyte growth factor receptor (P08581 whole entry): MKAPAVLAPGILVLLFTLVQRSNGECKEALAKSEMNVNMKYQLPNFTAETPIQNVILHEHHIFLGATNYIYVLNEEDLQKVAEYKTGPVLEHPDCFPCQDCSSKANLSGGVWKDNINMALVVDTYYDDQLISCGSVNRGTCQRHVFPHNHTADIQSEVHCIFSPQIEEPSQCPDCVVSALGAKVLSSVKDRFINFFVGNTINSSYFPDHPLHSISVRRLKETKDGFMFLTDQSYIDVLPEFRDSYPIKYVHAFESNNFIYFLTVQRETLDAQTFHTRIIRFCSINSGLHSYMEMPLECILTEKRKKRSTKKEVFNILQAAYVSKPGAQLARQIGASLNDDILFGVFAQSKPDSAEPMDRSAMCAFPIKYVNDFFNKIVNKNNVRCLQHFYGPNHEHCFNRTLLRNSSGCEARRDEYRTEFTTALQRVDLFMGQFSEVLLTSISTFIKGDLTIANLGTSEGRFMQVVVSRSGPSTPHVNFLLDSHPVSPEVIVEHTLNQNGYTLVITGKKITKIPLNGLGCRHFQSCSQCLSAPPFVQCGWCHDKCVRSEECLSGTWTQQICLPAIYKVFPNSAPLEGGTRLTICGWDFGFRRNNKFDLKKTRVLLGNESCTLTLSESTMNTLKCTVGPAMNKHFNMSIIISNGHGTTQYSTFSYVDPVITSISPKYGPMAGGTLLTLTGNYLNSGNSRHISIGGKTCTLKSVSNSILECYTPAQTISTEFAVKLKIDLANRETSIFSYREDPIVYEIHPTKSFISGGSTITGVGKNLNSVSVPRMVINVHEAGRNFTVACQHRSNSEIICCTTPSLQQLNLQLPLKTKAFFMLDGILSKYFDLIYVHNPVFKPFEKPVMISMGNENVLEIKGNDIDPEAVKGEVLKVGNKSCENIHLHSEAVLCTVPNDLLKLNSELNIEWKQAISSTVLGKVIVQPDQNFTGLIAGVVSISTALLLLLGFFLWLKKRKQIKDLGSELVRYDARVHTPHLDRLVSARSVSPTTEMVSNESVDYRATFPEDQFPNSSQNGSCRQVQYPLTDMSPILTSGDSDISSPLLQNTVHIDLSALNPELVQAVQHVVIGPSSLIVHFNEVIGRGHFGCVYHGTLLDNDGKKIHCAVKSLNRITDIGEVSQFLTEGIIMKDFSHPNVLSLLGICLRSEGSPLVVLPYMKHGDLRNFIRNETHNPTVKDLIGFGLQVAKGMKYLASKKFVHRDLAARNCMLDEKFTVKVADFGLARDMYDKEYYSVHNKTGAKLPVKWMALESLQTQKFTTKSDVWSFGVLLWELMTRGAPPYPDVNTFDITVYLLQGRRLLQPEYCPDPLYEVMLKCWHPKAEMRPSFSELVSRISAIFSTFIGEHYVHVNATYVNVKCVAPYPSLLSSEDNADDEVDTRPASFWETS

MCF7 = test: Antiproliferative activity against human MCF7 cells; type: functional, cell-based; settings: Homo sapiens, MCF7
[6] = molecular target: Lysine-specific demethylase 6B (Homo sapiens) (UniProt O15054); test: Inhibition of JMJD3 (unknown origin) at 25 uM relative to control
Sequence of Lysine-specific demethylase 6B (Homo sapiens) (O15054 whole entry): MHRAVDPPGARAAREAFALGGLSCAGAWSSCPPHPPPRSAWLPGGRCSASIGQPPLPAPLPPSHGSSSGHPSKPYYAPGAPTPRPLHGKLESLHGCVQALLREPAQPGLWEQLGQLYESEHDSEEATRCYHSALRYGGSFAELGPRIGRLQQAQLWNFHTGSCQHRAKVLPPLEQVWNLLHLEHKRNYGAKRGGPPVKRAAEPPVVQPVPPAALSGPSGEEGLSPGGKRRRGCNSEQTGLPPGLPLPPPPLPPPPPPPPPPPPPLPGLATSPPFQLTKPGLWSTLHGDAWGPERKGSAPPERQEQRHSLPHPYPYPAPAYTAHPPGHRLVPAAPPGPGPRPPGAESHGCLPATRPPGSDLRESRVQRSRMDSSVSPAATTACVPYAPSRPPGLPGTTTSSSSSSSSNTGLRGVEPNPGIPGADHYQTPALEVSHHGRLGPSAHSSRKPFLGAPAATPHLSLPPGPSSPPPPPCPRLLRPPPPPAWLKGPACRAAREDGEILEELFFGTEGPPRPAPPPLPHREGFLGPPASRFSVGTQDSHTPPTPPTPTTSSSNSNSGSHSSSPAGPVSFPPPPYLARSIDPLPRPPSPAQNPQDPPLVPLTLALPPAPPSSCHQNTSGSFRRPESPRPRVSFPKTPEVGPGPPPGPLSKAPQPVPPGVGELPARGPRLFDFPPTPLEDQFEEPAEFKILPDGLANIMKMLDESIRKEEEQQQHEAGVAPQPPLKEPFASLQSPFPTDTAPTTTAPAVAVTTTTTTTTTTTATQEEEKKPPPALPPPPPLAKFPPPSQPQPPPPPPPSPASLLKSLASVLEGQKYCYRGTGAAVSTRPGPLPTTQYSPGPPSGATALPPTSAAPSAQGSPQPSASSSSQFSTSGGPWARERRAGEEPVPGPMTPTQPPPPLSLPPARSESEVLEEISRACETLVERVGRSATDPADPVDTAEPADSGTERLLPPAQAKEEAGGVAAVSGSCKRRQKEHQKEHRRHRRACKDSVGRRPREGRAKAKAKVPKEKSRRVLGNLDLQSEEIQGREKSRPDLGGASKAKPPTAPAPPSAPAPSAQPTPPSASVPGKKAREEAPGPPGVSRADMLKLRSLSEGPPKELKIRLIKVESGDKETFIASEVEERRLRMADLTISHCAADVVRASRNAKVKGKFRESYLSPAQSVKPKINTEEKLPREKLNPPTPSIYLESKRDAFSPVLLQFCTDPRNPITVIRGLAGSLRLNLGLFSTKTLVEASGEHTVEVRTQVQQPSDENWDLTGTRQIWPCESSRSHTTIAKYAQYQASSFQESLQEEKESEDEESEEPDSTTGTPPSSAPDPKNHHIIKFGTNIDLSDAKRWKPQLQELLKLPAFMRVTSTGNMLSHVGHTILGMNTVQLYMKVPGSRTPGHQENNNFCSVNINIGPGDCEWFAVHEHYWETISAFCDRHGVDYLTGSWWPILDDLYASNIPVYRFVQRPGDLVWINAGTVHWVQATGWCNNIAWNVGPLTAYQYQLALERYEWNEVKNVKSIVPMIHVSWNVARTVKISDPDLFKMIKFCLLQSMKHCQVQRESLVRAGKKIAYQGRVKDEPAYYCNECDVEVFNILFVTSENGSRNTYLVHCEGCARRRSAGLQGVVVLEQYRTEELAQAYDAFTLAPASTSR

[7] = molecular target: Cathepsin B (Homo sapiens) (UniProt P07858); test: Inhibition of human cathepsin B exopeptidase activity at 50 uM relative to control
Plasmodium falciparum [8] = test: microbe, parasite or virus in culture; settings: NF54
Description: Antimalarial activity against CQ-sensitive Plasmodium falciparum NF54

Plasmodium falciparum [9] = test: Antimalarial activity against CQ-resistant Plasmodium falciparum K1; type: functional, organism-based
Plasmodium falciparum [10] = test: Antimalarial activity against CQ-sensitive Plasmodium falciparum 3D7; type: functional, organism-based
HeLa = test: Antiproliferative activity against human HeLa cells; type: functional, cell-based

Kd [1]: 4.6 µM
Compound: COc1ccc(C(=O)/C=C/c2cc(N3CCOCC3)c3ccccc3n2)cc1

Kd [1]: 20.1 µM
Compound: O=C(/C=C/c1cc(N2CCOCC2)c2cc(O)ccc2n1)c1ccc(Cl)cc1

Compound: Cc1c(Cl)ccc2cc(/C=C/C(=O)c3csc(Cl)c3)c(Cl)nc12
IC50 (Plasmodium falciparum [2]): < 50 nM
IC50 (Plasmodium falciparum [3]): < 50 nM

IC50 (Plasmodium falciparum [4]): 0.12 µg/mL (≈ 0.423 µM)
Compound: O=C(O)c1cc(-c2ccccc2)nc2ccc(Cl)cc12

IC50 (Plasmodium falciparum [4]): 0.1 µg/mL (≈ 0.199 µM)
Compound: O=C(NNC(=S)Nc1ccccc1)c1cc(-c2c(F)cccc2F)nc2ccc(C(F)(F)F)cc12

Compound: CCOC(=O)C(C#N)C(=O)c1cc(/C=C/c2ccc(N(C)C)cc2)nc2ccc(Br)cc12 (stereo not drawn)
IC50 (HCT-116): 7.7 µg/mL (≈ 15.6 µM)
IC50 (HepG2): 7.7 µg/mL (≈ 15.6 µM)

Compound: O=C1c2ccc(N3CCN(CCO)CC3)cc2C(=O)N1CCCCCCNc1ccnc2cc(Cl)ccc12
IC50 (Plasmodium falciparum [2]): 6 nM

Compound: COc1cccc(NC(=S)NNC(=O)c2cc(-c3ccc(C(F)(F)F)cc3)nc3ccc(F)cc23)c1
IC50 (Plasmodium falciparum [4]): 0.1 µg/mL (≈ 0.194 µM)

Compound: CCCCCCCCOc1c(OC)cc(NC(C)CCCN)c2nc(C(C)(C)C)ccc12 (stereo not drawn)
IC50 (Plasmodium falciparum [2]): 0.022 µg/mL
IC50 (Plasmodium falciparum [3]): 0.02 µg/mL

Compound: Cc1c(Cl)ccc2cc(/C=C/C(=O)c3cccc(Br)c3)c(Cl)nc12
IC50 (Plasmodium falciparum [2]): < 50 nM
IC50 (Plasmodium falciparum [3]): < 50 nM

IC50 (Plasmodium falciparum [4]): < 0.3 µg/mL
Compound: O=C(NNC(=S)Nc1ccc(Cl)cc1Cl)c1cc(-c2ccccc2Cl)nc2ccccc12

Compound: N=C(N=C(N)N)SCCCCNc1ccnc2cc(Cl)ccc12
IC50 (Plasmodium falciparum [2]): 430 nM
IC50 (Plasmodium falciparum [3]): 610 nM

IC50 (Plasmodium falciparum [4]): 0.12 µg/mL (≈ 0.43 µM)
Compound: COc1ccc2nc(-c3ccccc3)cc(C(=O)O)c2c1

EC50 (Plasmodium falciparum [3]): 12 nM
Compound: COc1ccc(Nc2ccnc3cc(-c4ccc(S(=O)(=O)N5CCN(C)CC5)cc4)ccc23)cc1Cl

IC50 [5]: 19 nM
Compound: COc1cc2nccc(Oc3ccc(NC(=O)C4(C(=O)Nc5ccc(F)cc5)CC4)cc3)c2cc1OC(=O)c1ccc([N+](=O)[O-])cc1

Compound: Cc1c(Cl)ccc2cc(/C=C/C(=O)c3ccc(Cl)cc3)c(Cl)nc12
IC50 (Plasmodium falciparum [2]): < 50 nM
IC50 (Plasmodium falciparum [3]): < 50 nM

IC50 (MCF7): 1380 nM
Compound: Cc1cc(S(=O)(=O)c2ccc(C#N)cc2)c2ccccc2n1

IC50 (Plasmodium falciparum [4]): 0.1 µg/mL (≈ 0.18 µM)
Compound: O=C(NNC(=S)Nc1cc(Cl)cc(Cl)c1)c1cc(-c2ccc(F)cc2F)nc2cc(Cl)c(F)cc12

IC50 (Plasmodium falciparum [4]): 0.092 µg/mL (≈ 0.223 µM)
Compound: OCc1cc(-c2cn(-c3ccc(Cl)cc3)nc2-c2ccccc2)nc2ccccc12

inhibition [6]: 90%
Compound: COc1ncc(-c2cnc3c(C(=O)O)ccc(C(=O)O)c3c2)c(OC)n1

inhibition [7]: 19.4%
Compound: CC(C)NC(=O)c1cc([N+](=O)[O-])c2cccnc2c1O

inhibition [6]: 0%
Compound: COc1cc(-c2cnc3c(C(=O)O)ccc(C(=O)O)c3c2)ccc1F

IC50 (MCF7): 1380 nM
Compound: Cc1cc(S(=O)(=O)c2ccccc2[N+](=O)[O-])c2ccccc2n1

Kd [1]: 4.6 µM
Compound: COc1ccc(C(=O)/C=C/c2cc(N3CCOCC3)c3cc(F)ccc3n2)cc1

Compound: CCCCCCOc1c(OC)cc(NC(C)CCCN)c2nc(C(C)(C)C)ccc12 (stereo not drawn)
IC50 (Plasmodium falciparum [2]): 0.022 µg/mL
IC50 (Plasmodium falciparum [3]): 0.02 µg/mL

IC50 (Plasmodium falciparum [4]): < 0.3 µg/mL
Compound: O=C(NNC(=S)Nc1ccc([N+](=O)[O-])cc1)c1cc(-c2ccccc2Cl)nc2ccccc12

IC50 (Plasmodium falciparum [4]): < 0.3 µg/mL
Compound: O=C(NNC(=S)NC1CCCCC1)c1cc(-c2ccccc2Cl)nc2ccccc12

Compound: Cc1cccc2cc(CNC3CCOC(C)(C)C3)c(N3CCCC3)nc12 (stereo not drawn)
IC50 (Plasmodium falciparum [8]): 22 nM
IC50 (Plasmodium falciparum [9]): 173 nM

inhibition [7]: 19.4%
Compound: O=C(NCCO)c1cc([N+](=O)[O-])c2cccnc2c1O

IC50 (Plasmodium falciparum [10]): 2900 nM
Compound: O=C(/C=C/C(=O)Nc1cccc(F)c1)NCCCCNc1cc(C(F)(F)F)nc2c(C(F)(F)F)cccc12

Compound: OCCNCCNc1ccnc2cc(Cl)ccc12
IC50 (Plasmodium falciparum [2]): 305 nM
IC50 (Plasmodium falciparum [10]): 18.9 nM

IC50 (HeLa): 40 nM
Compound: N#CN=C(NCCCCCCOc1ccc(Cl)cc1)Nc1ccncc1 [CHS-828]

IC50 [5]: 19 nM
Compound: COc1cc2nccc(Oc3ccc(NC(=O)C4(C(=O)Nc5c(F)cc(F)cc5F)CC4)cc3)c2cc1Oc1ccc(N)cn1

Compound: O=C1c2ccc(N3CCOCC3)cc2C(=O)N1CCCCCCNc1ccnc2cc(Cl)ccc12
IC50 (Plasmodium falciparum [2]): 6 nM

IC50 [5]: 2.6 nM
Compound: [2H]c1ccc2cc(C(F)(F)c3nnc4ccc(-c5cnn(C)c5)nn34)ccc2n1

Compound: C#Cc1ccc(-c2cn(CCNc3ccnc4cc(Cl)ccc34)nn2)cc1
IC50 (Plasmodium falciparum [8]): 140 nM
IC50 (Plasmodium falciparum [9]): 160 nM

inhibition [7]: 19.4%
Compound: COCCCNC(=O)c1cc([N+](=O)[O-])c2cccnc2c1O

Compound: FC(F)(F)c1ccc(-c2cncn2CCNc2ccnc3cc(Cl)ccc23)cc1
IC50 (Plasmodium falciparum [10]): 79 nM
IC50 (Plasmodium falciparum [9]): 290 nM

Compound: Cc1ccsc1-c1cncn1CCNc1ccnc2cc(Cl)ccc12
IC50 (Plasmodium falciparum [10]): 79 nM
IC50 (Plasmodium falciparum [9]): 290 nM

Compound: CCCCCOc1c(OC)cc(NC(C)CCCN)c2nc(C(C)(C)C)ccc12 (stereo not drawn)
IC50 (Plasmodium falciparum [2]): 0.022 µg/mL
IC50 (Plasmodium falciparum [3]): 0.02 µg/mL

inhibition [6]: 0%
Compound: NS(=O)(=O)c1ccc(-c2cnc3c(C(=O)O)ccc(C(=O)O)c3c2)cc1

IC50 (Plasmodium falciparum [4]): < 0.3 µg/mL
Compound: O=C(NNC(=S)Nc1cccc(Cl)c1)c1cc(-c2ccccc2Cl)nc2ccccc12

Compound: C#Cc1ccc(-c2cn(CCNc3ccnc4cc(Cl)ccc34)nn2)cc1F
IC50 (Plasmodium falciparum [8]): 140 nM
IC50 (Plasmodium falciparum [9]): 160 nM

IC50 (Plasmodium falciparum [8]): 24 nM
Compound: CC1(C)CC(NCc2cc3cccc(Cl)c3nc2N2CCCC2)CCO1 (stereo not drawn)
